Test results from US8889662B2, “Method to alter sex ratios in avian offspring” (University of Georgia Research Foundation, Inc., priority 2009, dated 2014).

Experiments:
[1] = Example 1: plasma CORT radioimmunoassay after injection, zebra finches; format: in vivo, zebra finch (Taeniopygia guttata); conditions: female zebra finches
Description: This experiment was conducted to determine whether a single injection of CORT at the critical time of sex chromosome segregation is sufficient to skew offspring sex ratios towards females. Female zebra finches were monitored for signs of nest-building and egg-laying. Approximately 19 h following the appearance of the first egg (1 h before sex chromosome segregation), females received one of two treatments: (1) a high dose of CORT (20 ug in 50 ul peanut oil), or (2) a control treatment (50 ul peanut oil). Because oviposition and ovulation are nearly concurrent, ovulation of the second egg took place when the first egg was laid. Thus, the egg that would be affected by our treatment was the third egg in the sequence. Eggs were labeled as they were laid and were collected after 6 d of incubation for molecular sexing analysis as described above. The percentage of females producing male offspring in each group were calculated and compared using chi square analyses. Blood samples were taken from a subset of females 1 h and 2.5 h post injection to verify that the CORT injection did, in fact, elevate circulating maternal CORT concentrations. CORT was quantified using a standard radioimmunoassay and CORT concentrations were log transformed and analyzed using an analysis of variance (ANOVA).

[2] = tested on: white leghorn and brown hyline hens; assay: Example 1: offspring sex after a single maternal CORT injection, chickens; format: in vivo, chicken; conditions: 2 mg CORT about 19 h after a mid-sequence egg, p=0.002 vs controls, p<0.0001 vs non-injected
Description: This experiment was similar to the previous one in that a single injection of CORT was provided at the time of meiotic segregation and the sexes of the resulting eggs were quantified. Laying patterns of female white leghorn and brown hyline hens were monitored and timed. Females that were laying between 1000 and 1200 h EST were included in the experiment. Females were artificially inseminated using pooled semen from 5-10 roosters at two time points prior to treatment.
Approximately 19 h following the appearance of a mid-sequence egg, females received one of three treatments: (1) a high dose of CORT (2 mg in 0.5 ml peanut oil), (2) a control treatment (0.5 ml peanut oil), or (3) no injection treatment. The egg corresponding to the next ovulation event was labeled, collected, and incubated at 37° C. for a period of 7 days to allow for embryonic development. Embryos were separated and sexed using PCR based techniques as described above. The percentage of females producing male offspring in each group were calculated and compared using chi square analyses. […] CORT was quantified using a standard radioimmunoassay and CORT concentrations were log transformed and analyzed using an analysis of variance (ANOVA).

[3] = Example 2: plasma corticosterone radioimmunoassay after injection, zebra finches; format: in vivo, Zebra finch (Taeniopygia guttata); conditions: zebra finch, 20 ug
Description: Radioimmunoassays. […] Different individuals were sampled at each time point. Blood samples were also taken from a set of unmanipulated females at time intervals 20 minutes and 1 hour, during the same bleeding session. To ensure that measurements reflect corticosterone elevations associated with the injection and not the stress of handling, samples were taken from the brachial vein within 3 minutes of capture (Romero and Romero, 2002, Condor; 104:129-135; Wingfield et al., 1982, Condor; 84:399-409). Injections and sampling began at 2300 hours (5 hors prior to ovulation) to accurately measure the blood plasma levels of corticosterone and changes in corticosterone levels in response to injections during the approximate period that meiosis occurs. Based on studies done in other avian species, it is likely that the time period from injection to blood sampling is just prior to the natural diurnal CORT peak that occurs at the end of the dark period (Westerhof et al., 1994, Avian Diseases; 38:428-434; de Jong et al., 2001, Physiology and Behavior; 74:299-304). The procedures for extraction and radioimmunoassay of corticosterone from plasma were followed as described by (Wingfield and Farner, 1975, Steroids; 26:311-327) and (Mendonça et al., 1996, Horm Behav; 30:153-161) using a rabbit derived anti-corticosterone antibody (MP Biomedicals, Solon, Ohio USA, cat #07-120016).
Statistical Analysis. Plasma CORT concentrations were analyzed among treatment groups and time points using a two-way ANOVA, and individual treatment differences were analyzed using Fisher's PLSD. All hormone data were non-normally distributed and were thus log transformed for statistical analyses.

[4] = Plasma corticosterone in hens after CORT injections (FIG. 9); format: in vivo, chicken; conditions: 0.5 mg CORT in peanut oil (physiologically high dose)
Description: FIG. 9. Plasma corticosterone concentrations in hens after injections of 1.5 mg CORT, 0.5 mg CORT, oil control, and uninjected.
To test for a dose-dependent effect of CORT on sex ratios, female leghorns will be housed in layer cages, provided access to food and water ad libitum and will be randomly divided into one of seven treatment groups (n=72 each). […] To test whether CORT is a mediator in the sex determination process, one group from each of these treatment sets will also receive a dose of RU-486 (0.5 mg dissolved in 500 ul dH20), a glucocorticoid receptor blocker, administered 15 min prior to the injection treatment itself. […] As a result, treatment with RU-486 should not interrupt normal laying cycles. One final group will receive no injection treatment.

For `C[C@]12C[C@H](O)[C@H]3[C@@H](CCC4=CC(=O)CC[C@@]43C)[C@@H]1CC[C@@H]2C(=O)CO` [corticosterone], the “circulating CORT concentrations compared to controls” value ([1]; 20 ug CORT in 50 ul peanut oil, within 1 h of injection, p<0.0001) was “significantly increased circulating CORT concentrations”, the “circulating CORT concentrations compared to controls” value ([1]; 20 ug CORT, 2.5 h post-injection, p=0.08) was “remained higher in the CORT treated females 2.5 h post-injection, but not significantly so” and the “likelihood of male embryos compared to controls and non-injected females” value [2] was “significantly more likely to be male”. For the same compound, the “plasma corticosterone levels compared to non-injected birds” value ([3]; 20 minutes after injection, p<0.0001) was “raised corticosterone levels significantly”, the “levels of corticosterone post-injection” value ([3]; 20 minutes, 1 hour and 2.5 hours post-injection (summary statement)) was “significantly elevated levels of corticosterone” and the “plasma corticosterone levels compared to non-injected birds” value ([3]; 1 hour post-injection, p=0.0002) was “remained significantly elevated”. For the same compound, the “plasma corticosterone levels, CORT treated versus control treated females” value ([3]; 2.5 hours after injection, p=0.0789) was “similar”, the “plasma corticosterone levels compared to unmanipulated females” value ([3]; 2.5 hr post-injection versus unmanipulated birds sampled at 1 h, p=0.0401) was “significantly higher corticosterone levels” and the “plasma corticosterone levels (FIG. 4 legend)” value ([3]; min and one hour after injection) was “significantly raised plasma corticosterone levels”. For the same compound, the CORT concentrations reached [4] was “below 40 ng/ml”.
